Data taken from PubChem BioAssay (NCI).
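Compound exposure: 48 hours, 5 concentrations, 96-well plates. GI50 marks 50% less growth. The concentration for full growth arrest is given as TGI.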

Legend:
Experiment in all cases: NCI anticancer screen, dose series, 48 h
[1] = system: UO-31 renal
[2] = system: HCT-116 colon
[3] = system: UACC-62 melanoma
[4] = system: T-47D breast
[5] = system: SN12C renal
[6] = system: IGROV1 ovarian
[7] = system: UACC-257 melanoma
[8] = system: MDA-N
[9] = system: K-562 leukemia

SMILES	TGI [1]	TGI [2]	TGI [3]	TGI [4]	TGI [5]	TGI [6]	TGI [7]	TGI [8]	TGI [9]	GI50 [2]	GI50 [9]	GI50 [6]	GI50 [1]	GI50 [3]	GI50 [7]
CCOS(=O)(=O)c1ccc(-c2c3nc(c(-c4ccc(S(=O)(=O)OCC)cc4)c4ccc([nH]4)c(-c4ccc(S(=O)(=O)OCC)cc4)c4nc(c(-c5ccc(S(=O)(=O)OCC)cc5)c5ccc2[nH]5)C=C4)C=C3)cc1	> 31.6 µM	> 31.6 µM	> 31.6 µM	> 31.6 µM	> 31.6 µM	> 100 µM	> 31.6 µM	> 31.6 µM							
COc1ccc(-c2nnc3n(C)c4ccccc4n3c2=O)cc1	> 100 µM	> 100 µM		> 100 µM	> 100 µM	> 100 µM	> 100 µM	> 100 µM							
O=S(=O)(c1ccccc1)c1ccc(-c2nc(-c3ccc4c(c3)Sc3ccccc3S4)cs2)cc1	> 100 µM	> 100 µM	> 100 µM	> 100 µM	> 100 µM		> 100 µM		> 100 µM						
COc1ccc(N2C(=O)/C(=C/c3ccc(N(CCC#N)CCC#N)cc3)N=C2c2ccccc2)cc1	> 100 µM	> 100 µM	> 100 µM	> 100 µM	> 100 µM	> 100 µM	> 100 µM	> 100 µM	> 100 µM						
CC(=O)[C@@]1(c2ccccc2)CC2(CCN(C)CC2)O[C@H]1C	> 100 µM	> 100 µM		> 100 µM	> 100 µM	> 100 µM	> 100 µM	> 100 µM	> 100 µM						
COc1cccc(OC)c1NC(=O)C(=O)Nn1c(NNC(=O)c2ccncc2)nc2ccccc2c1=O	> 100 µM	> 100 µM	> 100 µM	> 100 µM	> 100 µM	> 100 µM	> 100 µM	> 100 µM	> 100 µM						
N#CC1=C(N)N(/N=C/c2ccco2)C(c2ccco2)C1(C#N)C#N (configuration not stated)	34.4 µM	25.3 µM	42.4 µM	33.2 µM	70 µM	30 µM	33.2 µM	37.4 µM	85.1 µM						
O=C1CN(c2cccc(C(F)(F)F)c2)C(=O)CN1CCN1CC(=O)N(c2cccc(C(F)(F)F)c2)CC1=O	> 100 µM	> 100 µM		> 100 µM	> 100 µM	> 100 µM	> 100 µM	> 100 µM	> 100 µM						
O=C(NC1C/C(=N/O)c2c(Br)sc(Br)c21)C(F)(F)F (configuration not stated)	98.5 µM	30.9 µM	> 100 µM	> 100 µM	56.1 µM	> 100 µM	72.3 µM	> 100 µM	38.4 µM						
CN(C)CC1CCC/C(=C\c2ccc(OC(=O)/C=C/c3ccc(Cl)cc3)cc2)C1=O (configuration not stated)	12.8 µM	11 µM	19.1 µM	4.64 µM	12.8 µM	3.35 µM	32.6 µM	18.6 µM	4.04 µM						
Cn1c(=O)c2[nH]c(SC/C(=N/O)c3ccc(Br)cc3)nc2n(C)c1=O		> 100 µM				5.55 µM			> 100 µM	3190 nM	25.9 µM	2270 nM			
C(=N\NC1=NCCN1)/c1ccc2ccccc2c1	19.9 µM	28.9 µM	29 µM	> 100 µM	35.4 µM	24.6 µM	29.3 µM	27.9 µM	32.6 µM						
O=c1c2c3c(sc2nc2n1NC=NN2)CCCC3	> 64.3 µM	32.4 µM	35.8 µM	> 65.8 µM	39.6 µM	> 56.6 µM	41.9 µM	30.9 µM	6.81 µM						
CC(=O)NC(C)(C)C1CCC(C)CC1 (configuration not stated)	> 100 µM	> 100 µM	> 100 µM		> 100 µM	> 100 µM	> 100 µM	> 100 µM	> 100 µM						
CC[C@]12C=CCN3CC[C@@]4(c5cc(Br)c(OC)cc5N(C)[C@H]4[C@@](O)(C(=O)NC(Cc4c[nH]c5ccccc45)C(=O)OC)[C@@H]1O)[C@@H]32 (some centres not stated)	> 100 µM	> 100 µM	> 100 µM	> 100 µM	> 100 µM	> 100 µM		> 100 µM	> 100 µM						
O=C1CC(c2ccccc2)n2c(nc3ccccc32)N1 (configuration not stated)	> 100 µM	> 100 µM	> 100 µM	> 100 µM		> 100 µM	> 100 µM	> 100 µM	> 100 µM						
COC(=O)C1(Cc2ccccc2)Cc2cc3c(cc2C1O)CCC3 (configuration not stated)		31.8 µM	32.6 µM	62.9 µM	33.3 µM	32.1 µM	42.9 µM	34.6 µM	67.6 µM						
CC1CN(CCO)CCN1c1ccccc1 (configuration not stated)	> 100 µM	> 100 µM	> 100 µM	> 100 µM	> 100 µM	> 100 µM	> 100 µM	> 100 µM	> 100 µM						
COc1ccc2c3/c(=C\c4ccc(N(C)C)cc4)c4ccccc4n3[n+](C)c2c1	1.66 µM	> 100 µM	0.224 µM			> 100 µM	0.424 µM		> 40 µM	53.3 nM	0.0272 µM	240 nM	484 nM	< 27.5 nM	34.6 nM
CCN(CC)CCC1CCCCN1CC(=O)N1c2cc(Cl)ccc2NC(=O)CC1C (configuration not stated)	> 100 µM	> 100 µM	> 100 µM	> 100 µM	> 100 µM	> 100 µM		> 100 µM	> 100 µM						
O=c1[nH]cnc2c1cnn2Cc1cnnn1COCCO	> 100 µM	> 100 µM	> 100 µM	> 100 µM	> 100 µM	> 100 µM	> 100 µM		> 100 µM						
CCSc1nc(N/N=C/c2cccs2)c2cnn(CO)c2n1	10.2 µM	16.6 µM	22.5 µM	18.5 µM	30.6 µM	10.7 µM	26.4 µM		52.7 µM						
CCNC(=S)NNC(=O)c1ccccc1Nc1ccccc1C(=O)NNC(=S)NCC	> 100 µM	> 100 µM	> 100 µM	> 100 µM	> 100 µM	> 100 µM		> 100 µM	> 100 µM						
